As a reminder, the IC50 is the point on the concentration scale where inhibition reaches its midpoint.

For this test, the target named is purified human MMP-12 enzyme (Homo sapiens, UniProt P39900). Nature of the test: MMP-12 FRET assay. The class given is biochemical. The following applies: substrate 20 μM, room temperature. The method, then: Compounds according to the present teachings were tested in an MMP-12 FRET assay as follows. To each well of black polystyrene 96-well plate was added assay buffer (50 mM HEPES (pH 7.4), 100 mM NaCl, 5 mM CaCl2 and 0.005% Brij-35 (Polyoxyethyleneglycol dodecyl ether, Pierce cat#20150), purified human MMP-12 enzyme, and varied concentrations of test compounds (prepared by serial dilution of a stock solution in 100% DMSO). The plates were incubated at room temperature for 30 minutes. The enzymatic reactions were initiated by addition of a substrate, MCA-Pro-Leu-Gly-Leu-Dpa(DNP)-Ala-Arg, containing a fluorescent group (7-methoxycoumarin, MCA) and a 2,4-dinitrophenyl group (DNP), to a final concentration of 20 μM. The final DMSO concentration in the assay was 10%. The reaction was monitored for 30 minutes at room temperature and the initial rate of the cleavage reaction was determined using a fluorescence plate reader (λex: 325 nm, λem: 395 nm). Plots of the inhibitor concentration vs. the initial cleavage rate were fit to the following equation: y=Vmax*(1−(x^n/(K^n+x^n))), whereby x=inhibitor concentration, y=initial rate, Vmax=initial rate in the absence of inhibitor, n=slope factor, and K=IC50 for the inhibition curve.
Chain of purified human MMP-12 enzyme (P39900 106-470): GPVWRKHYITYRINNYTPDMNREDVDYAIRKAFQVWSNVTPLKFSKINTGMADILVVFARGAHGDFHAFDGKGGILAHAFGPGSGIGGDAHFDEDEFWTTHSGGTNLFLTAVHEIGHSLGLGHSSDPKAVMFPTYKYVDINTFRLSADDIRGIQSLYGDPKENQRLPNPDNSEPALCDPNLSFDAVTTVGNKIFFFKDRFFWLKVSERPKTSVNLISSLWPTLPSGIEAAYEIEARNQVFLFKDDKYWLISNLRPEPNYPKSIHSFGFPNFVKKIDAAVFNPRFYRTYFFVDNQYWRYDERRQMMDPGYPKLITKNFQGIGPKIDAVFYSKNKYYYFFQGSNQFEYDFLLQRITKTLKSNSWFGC
Take `CC(=O)c1ccc(-c2ccc3c(c2)oc2ccc(S(=O)(=O)N[C@@H](C(=O)O)C(C)C)cc23)s1` [Compound 105, (R)-2-(7-(5-acetylthiophen-2-yl)dibenzo[b,d]furan-2-sulfonamido)-3-methylbutanoic acid]: the IC50 is 21.8 nM.

With `COc1ccc2sc(-c3ccc4oc5cc(S(=O)(=O)N[C@H](C(=O)O)C(C)C)ccc5c4c3)nc2c1` [Compound 225, (S)-2-(8-(5-methoxybenzo[d]thiazol-2-yl)dibenzo[b,d]furan-3-sulfonamido)-3-methylbutanoic acid], the half-inhibitory concentration (IC50) was below 1.5 nM.

As to `CC(C)[C@H](NS(=O)(=O)c1ccc2c(c1)oc1ccc(-c3ccc4c(c3)OCO4)cc12)C(=O)O` [Compound 308, (S)-2-(8-(benzo[d][1,3]dioxol-5-yl)dibenzo[b,d]furan-3-sulfonamido)-3-methylbutanoic acid], the IC50 is below 1.5 nM.

Compound `CC(C)[C@H](NS(=O)(=O)c1ccc2c(c1)oc1ccc(-c3nc4c(s3)CCCC4)cc12)C(=O)O` [Compound 307, (S)-3-methyl-2-(8-(4,5,6,7-tetrahydrobenzo[d]thiazol-2-yl)dibenzo[b,d]furan-3-sulfonamido)butanoic acid] displayed an IC50 below 1.5 nM.

`CC(C)[C@@H](NS(=O)(=O)c1ccc2oc3cc(-c4nc5ccccc5s4)ccc3c2c1)C(=O)O` [Compound 293, (R)-2-(7-(benzo[d]thiazol-2-yl)dibenzo[b,d]furan-2-sulfonamido)-3-methylbutanoic acid] returned an IC50 of 21 nM.

Compound `CC(C)[C@H](NS(=O)(=O)c1ccc2c(c1)oc1cc(-c3nc4ccc(C(F)(F)F)cc4s3)ccc12)C(=O)O` [Compound 236, (S)-3-methyl-2-(7-(6-(trifluoromethyl)benzo[d]thiazol-2-yl)dibenzo[b,d]furan-3-sulfonamido)butanoic acid] yielded an IC50 of 12 nM.

“(R)-2-(7-(5-ethyl-1,2,4-oxadiazol-3-yl)dibenzo[b,d]furan-2-sulfonamido)-3-methylbutanoic acid [Compound 140]” registered an IC50 of 3.8 nM.

The compound `CCN=C(NCC)c1ccc2oc3cc(S(=O)(=O)N[C@H](C(=O)O)C(C)C)ccc3c2c1` [Compound 109, (S)-2-(8-(N,N′-diethylcarbamimidoyl)dibenzo[b,d]furan-3-sulfonamido)-3-methylbutanoic acid] registered an IC50 of 640 nM.

On to `CC(C)[C@H](NS(=O)(=O)c1ccc2c(c1)oc1ccc(-c3nc4ccc(F)cc4s3)cc12)C(=O)O` [Compound 209, (S)-2-(8-(6-fluorobenzo[d]thiazol-2-yl)dibenzo[b,d]furan-3-sulfonamido)-3-methylbutanoic acid], for which the IC50 is below 1.5 nM.

Turning to `CC(C)[C@H](NS(=O)(=O)c1ccc2c(c1)oc1cc(-c3nc4ccc(F)cc4s3)ccc12)C(=O)O` [Compound 237, (S)-2-(7-(6-fluorobenzo[d]thiazol-2-yl)dibenzo[b,d]furan-3-sulfonamido)-3-methylbutanoic acid], the IC50 was below 1.5 nM.

Take `CC(C)[C@H](NS(=O)(=O)c1ccc2c(c1)oc1ccc(C(=N)NCc3ccccc3)cc12)C(=O)O` [Compound 88, (S)-2-(8-(N-benzylcarbamimidoyl)dibenzo[b,d]furan-3-sulfonamido)-3-methylbutanoic acid]: the 50% inhibitory concentration (IC50) was 47 nM.

`CC(C)[C@H](NS(=O)(=O)c1ccc2c(c1)oc1ccc(C3CCCC3)cc12)C(=O)O` [Compound 71, (S)-2-(8-cyclopentyldibenzo[b,d]furan-3-sulfonamido)-3-methylbutanoic acid] gave an IC50 below 1.5 nM.

In the case of `CC(C)[C@@H](NS(=O)(=O)c1ccc2oc3cc(-c4cn[nH]c4)ccc3c2c1)C(=O)O` [Compound 103, (R)-2-(7-(1H-pyrazol-4-yl)dibenzo[b,d]furan-2-sulfonamido)-3-methylbutanoic acid], the midpoint of inhibition, the IC50, lay at 16 nM.

For the compound `COc1cccc2sc(-c3ccc4oc5cc(S(=O)(=O)N[C@H](C(=O)O)C(C)C)ccc5c4c3)nc12` [Compound 223, (S)-2-(8-(4-methoxybenzo[d]thiazol-2-yl)dibenzo[b,d]furan-3-sulfonamido)-3-methylbutanoic acid], the IC50 was 13 nM.

On to `CC(C)[C@H](NS(=O)(=O)c1ccc2c(c1)oc1ccc(-c3ncc(CO)s3)cc12)C(=O)O` [Compound 215, (S)-2-(8-(5-(hydroxymethyl)thiazol-2-yl)dibenzo[b,d]furan-3-sulfonamido)-3-methylbutanoic acid], for which the IC50 came to 2.4 nM.

`CCCn1cc(-c2ccc3c(c2)oc2ccc(S(=O)(=O)N[C@@H](C(=O)O)C(C)C)cc23)cn1` [Compound 171, (R)-3-methyl-2-(7-(1-propyl-1H-pyrazol-4-yl)dibenzo[b,d]furan-2-sulfonamido)butanoic acid] displayed an IC50 of 3.9 nM.

`Cc1ccc(-c2ccc3c(c2)oc2cc(S(=O)(=O)N[C@H](C(=O)O)C(C)C)ccc23)o1` [Compound 135, (S)-3-methyl-2-(7-(5-methylfuran-2-yl)dibenzo[b,d]furan-3-sulfonamido)butanoic acid] yielded an IC50 below 1.5 nM.

The compound `Cc1cscc1-c1ccc2oc3cc(S(=O)(=O)N[C@H](C(=O)O)C(C)C)ccc3c2c1` [Compound 5, (S)-3-methyl-2-(8-(4-methylthiophen-3-yl)dibenzo[b,d]furan-3-sulfonamido)butanoic acid] registered an IC50 of 2.2 nM.

As to `CC(C)[C@@H](NS(=O)(=O)c1ccc2oc3cc(-c4noc(C5CCCC5)n4)ccc3c2c1)C(=O)O` [Compound 190, (R)-2-(7-(5-cyclopentyl-1,2,4-oxadiazol-3-yl)dibenzo[b,d]furan-2-sulfonamido)-3-methylbutanoic acid], the IC50 came to 2.2 nM.

The compound `CC(C)[C@H](NS(=O)(=O)c1ccc2c(c1)oc1ccc(-c3ccc4c(c3)C(C)(C)OC(=O)N4)cc12)C(=O)O` [Compound 4, (S)-2-(8-(4,4-dimethyl-2-oxo-2,4-dihydro-1H-benzo[d][1,3]oxazin-6-yl)dibenzo[b,d]furan-3-sulfonamido)-3-methylbutanoic acid] yielded an IC50 of 12.2 nM.

Take `CCc1ccc(-c2ccc3c(c2)oc2cc(S(=O)(=O)N[C@H](C(=O)O)C(C)C)ccc23)s1` [Compound 229, (S)-2-(7-(5-ethylthiophen-2-yl)dibenzo[b,d]furan-3-sulfonamido)-3-methylbutanoic acid]: the IC50 was below 1.5 nM.

`CC(C)[C@@H](NS(=O)(=O)c1ccc2oc3cc(-c4noc(C(C)(C)C)n4)ccc3c2c1)C(=O)O` [Compound 133, (R)-2-(7-(5-tert-butyl-1,2,4-oxadiazol-3-yl)dibenzo[b,d]furan-2-sulfonamido)-3-methylbutanoic acid]: the concentration for half-maximal inhibition (IC50) amounted to 8 nM.

In turn, `C/C=C/c1ccc2oc3cc(S(=O)(=O)N[C@H](C(=O)O)C(C)C)ccc3c2c1` [Compound 66, (S,E)-3-methyl-2-(8-(prop-1-enyl)dibenzo[b,d]furan-3-sulfonamido)butanoic acid] registered an IC50 below 1.5 nM.

`CC(C)[C@H](NS(=O)(=O)c1ccc2c(c1)oc1ccc(-c3cc4ccccc4s3)cc12)C(=O)O` [Compound 13, (S)-2-(8-(benzo[b]thiophen-2-yl)dibenzo[b,d]furan-3-sulfonamido)-3-methylbutanoic acid] displayed an IC50 of 1.7 nM.

For the compound `CC(C)[C@H](NS(=O)(=O)c1ccc2c(c1)sc1cc(-c3ccoc3)ccc12)C(=O)O` [Compound 60, (S)-2-(7-(furan-3-yl)dibenzo[b,d]thiophene-3-sulfonamido)-3-methylbutanoic acid], the IC50 was below 1.5 nM.

Take `CC(C)[C@H](NS(=O)(=O)c1ccc2c(c1)oc1ccc(-c3noc(C4CCCC4)n3)cc12)C(=O)O` [Compound 263, (S)-2-(8-(5-cyclopentyl-1,2,4-oxadiazol-3-yl)dibenzo[b,d]furan-3-sulfonamido)-3-methylbutanoic acid]: the IC50 is 2.5 nM.

As for `CC(C)[C@H](NS(=O)(=O)c1ccc2c(c1)oc1ccc(-c3cnn(C)c3)cc12)C(=O)O` [Compound 18, (S)-3-methyl-2-(8-(1-methyl-1H-pyrazol-4-yl)dibenzo[b,d]furan-3-sulfonamido)butanoic acid], the IC50 was below 1.5 nM.

`CC(C)[C@H](NS(=O)(=O)c1ccc2c(c1)oc1ccc(-c3ccsc3Cl)cc12)C(=O)O` [Compound 34, (S)-2-(8-(2-chlorothiophen-3-yl)dibenzo[b,d]furan-3-sulfonamido)-3-methylbutanoic acid]: the IC50 was below 1.5 nM.

As for `CC(C)[C@H](NS(=O)(=O)c1ccc2c(c1)oc1cc(-c3nc4ccccc4s3)ccc12)C(=O)O` [Compound 226, (S)-2-(7-(benzo[d]thiazol-2-yl)dibenzo[b,d]furan-3-sulfonamido)-3-methylbutanoic acid], it took 1.7 nM to reach half-maximal inhibition (IC50).

For `COc1ncc(-c2ccc3oc4cc(S(=O)(=O)N[C@H](C(=O)O)C(C)C)ccc4c3c2)cn1` [Compound 153, (S)-2-(8-(2-methoxypyrimidin-5-yl)dibenzo[b,d]furan-3-sulfonamido)-3-methylbutanoic acid], the IC50 was below 1.5 nM.

In turn, `Cc1cscc1-c1ccc2c(c1)oc1ccc(S(=O)(=O)N[C@@H](C(=O)O)C(C)C)cc12` [Compound 99, (R)-3-methyl-2-(7-(4-methylthiophen-3-yl)dibenzo[b,d]furan-2-sulfonamido)butanoic acid] gave a half-maximal inhibitory concentration (IC50) of 12 nM.

As for `CC(C)[C@H](NS(=O)(=O)c1ccc2c(c1)oc1ccc(-c3ccc(-c4ccno4)s3)cc12)C(=O)O` [Compound 211, (S)-2-(8-(5-(isoxazol-5-yl)thiophen-2-yl)dibenzo[b,d]furan-3-sulfonamido)-3-methylbutanoic acid], the IC50 stood at 295 nM.

These data come from patent publication US20100227859A1, “TRICYCLIC COMPOUNDS AS MATRIX METALLOPROTEINASE INHIBITORS” (priority 2007, published 2010).
